In the NIST ThermoML archive (doi:10.1016/j.jct.2014.09.001):
± gives the expanded uncertainty stated by the source.

Legend:
[1] = refractive index (Na D-line) (dimensionless); conditions: 298.15 K; 101.33 kPa; Liquid; Standard Abbe refractometry
[2] = 298.15 K; 101.33 kPa; Liquid; Vibrating tube method
[3] = excess molar enthalpy (molar enthalpy of mixing); xn = mol fraction of the nth substance listed; conditions: 298 K, 81.5 kPa, Liquid, Isoperibol calorimetry

CC(C)O [propan-2-ol]
refractive index [1]: 1.37518 ± 0.00033
mass density [2]: 780.9 ± 1 kg/m3

O=[N+]([O-])c1ccccc1 [nitrobenzene] + CCCCO
excess molar enthalpy ([3]; x1 = 0.1116): 0.184 ± 0.00239 kcal/mol
excess molar enthalpy ([3]; x1 = 0.2145): 0.31 ± 0.00382 kcal/mol
excess molar enthalpy ([3]; x1 = 0.3183): 0.398 ± 0.00502 kcal/mol
excess molar enthalpy ([3]; x1 = 0.4126): 0.448 ± 0.0055 kcal/mol
excess molar enthalpy ([3]; x1 = 0.5133): 0.464 ± 0.00574 kcal/mol
excess molar enthalpy ([3]; x1 = 0.61): 0.466 ± 0.00574 kcal/mol
excess molar enthalpy ([3]; x1 = 0.6849): 0.449 ± 0.0055 kcal/mol
excess molar enthalpy ([3]; x1 = 0.7953): 0.391 ± 0.00502 kcal/mol
excess molar enthalpy ([3]; x1 = 0.8987): 0.262 ± 0.00335 kcal/mol

O=[N+]([O-])c1ccccc1 [nitrobenzene] + CCO
excess molar enthalpy ([3]; x1 = 0.0997): 0.112 ± 0.00153 kcal/mol
excess molar enthalpy ([3]; x1 = 0.1991): 0.201 ± 0.00263 kcal/mol
excess molar enthalpy ([3]; x1 = 0.2988): 0.264 ± 0.00335 kcal/mol
excess molar enthalpy ([3]; x1 = 0.4003): 0.307 ± 0.00382 kcal/mol
excess molar enthalpy ([3]; x1 = 0.4899): 0.342 ± 0.0043 kcal/mol
excess molar enthalpy ([3]; x1 = 0.5905): 0.355 ± 0.00454 kcal/mol
excess molar enthalpy ([3]; x1 = 0.6997): 0.344 ± 0.0043 kcal/mol
excess molar enthalpy ([3]; x1 = 0.7999): 0.304 ± 0.00382 kcal/mol
excess molar enthalpy ([3]; x1 = 0.8939): 0.222 ± 0.00287 kcal/mol

CCO [ethanol]
refractive index [1]: 1.35961 ± 0.00031
mass density [2]: 784.9 ± 1 kg/m3

O=[N+]([O-])c1ccccc1 [nitrobenzene]
refractive index [1]: 1.55004 ± 0.00037
mass density [2]: 1198.12 ± 1.1 kg/m3

CCCCO [butan-1-ol]
refractive index [1]: 1.39734 ± 0.00031
mass density [2]: 805.79 ± 1 kg/m3

CCC(C)O (stereo not drawn) [butan-2-ol]
refractive index [1]: 1.39551 ± 0.00037
mass density [2]: 802.48 ± 1 kg/m3

O=[N+]([O-])c1ccccc1 [nitrobenzene] + CCCO
excess molar enthalpy ([3]; x1 = 0.1037): 0.169 ± 0.00222 kcal/mol
excess molar enthalpy ([3]; x1 = 0.2036): 0.288 ± 0.00359 kcal/mol
excess molar enthalpy ([3]; x1 = 0.3063): 0.364 ± 0.00454 kcal/mol
excess molar enthalpy ([3]; x1 = 0.4034): 0.409 ± 0.00502 kcal/mol
excess molar enthalpy ([3]; x1 = 0.4956): 0.432 ± 0.0055 kcal/mol
excess molar enthalpy ([3]; x1 = 0.4993): 0.432 ± 0.0055 kcal/mol
excess molar enthalpy ([3]; x1 = 0.593): 0.43 ± 0.00526 kcal/mol
excess molar enthalpy ([3]; x1 = 0.6975): 0.408 ± 0.00502 kcal/mol
excess molar enthalpy ([3]; x1 = 0.7978): 0.351 ± 0.0043 kcal/mol
excess molar enthalpy ([3]; x1 = 0.9025): 0.242 ± 0.00311 kcal/mol

O=[N+]([O-])c1ccccc1 [nitrobenzene] + CC(C)O
excess molar enthalpy ([3]; x1 = 0.1038): 0.208 ± 0.00263 kcal/mol
excess molar enthalpy ([3]; x1 = 0.2065): 0.339 ± 0.0043 kcal/mol
excess molar enthalpy ([3]; x1 = 0.306): 0.42 ± 0.00526 kcal/mol
excess molar enthalpy ([3]; x1 = 0.3954): 0.466 ± 0.00574 kcal/mol
excess molar enthalpy ([3]; x1 = 0.4911): 0.488 ± 0.00598 kcal/mol
excess molar enthalpy ([3]; x1 = 0.5906): 0.485 ± 0.00598 kcal/mol
excess molar enthalpy ([3]; x1 = 0.6999): 0.451 ± 0.00574 kcal/mol
excess molar enthalpy ([3]; x1 = 0.8042): 0.381 ± 0.00478 kcal/mol
excess molar enthalpy ([3]; x1 = 0.8996): 0.264 ± 0.00335 kcal/mol

CCCO [propan-1-ol]
refractive index [1]: 1.38361 ± 0.00031
mass density [2]: 799.56 ± 1 kg/m3

O=[N+]([O-])c1ccccc1 [nitrobenzene] + CCC(C)O
excess molar enthalpy ([3]; x1 = 0.1035): 0.262 ± 0.00335 kcal/mol
excess molar enthalpy ([3]; x1 = 0.2049): 0.424 ± 0.00526 kcal/mol
excess molar enthalpy ([3]; x1 = 0.3065): 0.528 ± 0.00669 kcal/mol
excess molar enthalpy ([3]; x1 = 0.4088): 0.579 ± 0.00717 kcal/mol
excess molar enthalpy ([3]; x1 = 0.5111): 0.592 ± 0.00741 kcal/mol
excess molar enthalpy ([3]; x1 = 0.6117): 0.568 ± 0.00693 kcal/mol
excess molar enthalpy ([3]; x1 = 0.6988): 0.534 ± 0.00669 kcal/mol
excess molar enthalpy ([3]; x1 = 0.7988): 0.448 ± 0.0055 kcal/mol
excess molar enthalpy ([3]; x1 = 0.8981): 0.292 ± 0.00382 kcal/mol
